Where two headings read alike, the source gives them in different places. Residues, ends and D or L forms follow the SMILES beside them.

Here are results for one compound from patent publication US11160887B2, “Compositions for use in diagnosing and treating melanoma, including metastatic melanoma and methods related to same” (UNM RAINFOREST INNOVATIONS, priority 2008, dated 2021).

A short description of data set [1]: Biodistribution in B16/F1 murine melanoma-bearing C57 mice. The format is in vivo, mouse. As to conditions: female, C57, mouse, iv, 0.037 MBq, total radioactivity; for tissue uptake: all time points (2, 4, 24 h). Here is the method:
(§1) Biodistribution Studies: All the animal studies were conducted in compliance with Institutional Animal Care and Use Committee approval. The pharmacokinetics of ^111In-DOTA-CycMSH and ^111In-DOTA-GlyGlu-CycMSH were determined in B16/F1 murine melanoma-bearing C57 female mice (Harlan, Indianapolis, Ind.). C57 mice were inoculated subcutaneously with 1×10^6 B16/F1 murine melanoma cells in the right flank. After 10 days, when the weight of tumors reached approximately 0.2 g, 0.037 MBq of ^111In-DOTA-CycMSH or ^111In-DOTA-GlyGlu-CycMSH was injected into each mouse through the tail vein. Groups of 5 mice were sacrificed at 2, 4 and 24 h post-injection, and tumors and organs of interest were harvested, weighed and counted. Blood values were taken as 6.5% of the whole-body weight. The tumor uptake specificity of ^111In-DOTA-CycMSH and ^111In-DOTA-GlyGlu-CycMSH was determined by blocking tumor uptake with the co-injection of 10 μg (6.07 nmol) of unlabeled NDP-MSH, a linear α-MSH peptide analogue with picomolar affinity for the MC1 receptors present on murine melanoma cells. Statistical analysis was performed using the Student's t-test for unpaired data.

The test system of data set [2] is B16/F1 murine melanoma-bearing C57 mice. Described as above. The format is in vivo, mouse. The method, then: as §1

On to `CCCC[C@@H]1NC(=O)[C@@H](NC(=O)[C@H](CCC(=O)O)NC(=O)CNC(=O)CN2CCN(CC(=O)O)CCN(CC(=O)O)CCN(CC(=O)O)CC2)CCCCNC(=O)[C@H](CC(=O)O)NC(=O)[C@H](C(C)C)NC(=O)[C@@H]2CCCN2C(=O)[C@H](CCCNC(=N)N)NC(=O)CNC(=O)[C@H](Cc2c[nH]c3ccccc23)NC(=O)[C@H](CCCNC(=N)N)NC(=O)[C@@H](Cc2ccccc2)NC(=O)[C@H](Cc2c[nH]cn2)NC(=O)[C@H](CCC(=O)O)NC1=O` [^111In-DOTA-GlyGlu-CycMSH, metal not drawn] (HELM PEPTIDE1{[O=C(O)CN1CCN(CC(=O)O)CCN(CC(=O)[*:2])CCN(CC(=O)O)CC1].G.E.K.[Nle].E.H.[dF].R.W.G.R.P.V.D}$PEPTIDE1,PEPTIDE1,4:R3-15:R2$$$V2.0), for which, in data set [1] (bone, read-out: bone uptake), the tissue uptake was below 0.2 %ID/g. In data set [1] (kidney, 24 h after dose administration), the kidney uptake at 24 h amounted to 9.06 ± 1.82 %ID/g. In addition, the tissue uptake in data set [1] (normal organs except the kidneys, read-out: normal organ uptakes except for the kidneys) was below 0.8 %ID/g. The tissue uptake at 2 h in data set [1] (tumor, 2 h post-injection, tail vein) is 10.4 ± 1.4 %ID/g. For the same compound, the tissue uptake at 4 h in data set [1] (tumor, 4 h post-injection, tail vein) came out at 7.4 ± 0.43 %ID/g. Besides, the tissue uptake at 24 h in data set [1] (tumor, 24 h post-injection, tail vein) was determined as 2.37 ± 0.28 %ID/g. Moreover, in data set [1] (urine, by 2 h post-injection, read-out: injected radioactivity cleared through the urinary system), the dose excreted was around 90%. The “tumor uptake with NDP co-injection as % of the tumor uptake without NDP co-injection” value in data set [2] (10 μg (6.07 nmol) non-radiolabeled NDP co-injection, 2 h after dose administration) worked out at 2.6%. Besides, in data set [2] (2 h post-injection, tail vein), the tumor uptake is given as 10.40±1.40 % ID/g. For the same compound, in data set [2] (4 h post-injection), the “kidney uptake higher than 111In-DOTA-ReCCMSH” value turned out to be 29%, the “less renal uptake than 111In-DOTA-CycMSH” value is reported as 44% and the “renal uptake as % of that of 111In-DOTA-CMSH” value stood at 34%.
